Legend:
[1] = Solubility assessment, 20 mg/ml solution; assay type: physicochemical
In short: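 Compounds from 100 mM DMSO stocks diluted to 20 mg/ml in DMEM with FBS and penicillin/streptomycin, vortexed and checked visually for precipitate. One compound instead diluted to 20 mg/ml in phosphate-buffered saline, solution pH 2.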

SUM149-PTXR cells = assay: Monolayer growth inhibition, Alamar blue assay; assay type: cell-based, Human; details: SUM149-PTXR (TNBC, BRCA Mutant), 5 days, single dose on day 1
From the text: (§1) In all instances a single dose was given on day 1 of the experiment.

T47D cells = assay: Monolayer growth inhibition, Alamar blue assay; assay type: cell-based, Human; details: T47D (ER/PR), 5 days, single dose on day 1
From the text: as §1

MDA-MB-468 cells = assay: Soft agar growth inhibition assay; assay type: cell-based, Human; details: MDA-MB-468 (TNBC), 14-22 days

In the case of `C[C@@H]1CNC(=O)c2cc3ccc(C(=O)Nc4cnn(Cc5ccc(N)cc5)c4)nc3n21` [Compound 18, (R)—N-(1-(4-aminobenzyl)-1H-pyrazol-4-yl)-9-methyl-6-oxo-6,7,8,9-tetrahydropyrido[3′,2′:4,5]pyrrolo[1,2-a]pyrazine-2-carboxamide], the “Solubility, 20 mg/ml Solution” value ([1]; 100 mM in DMSO diluted in DMEM growth media to 20 mg/ml) is reported as “Soluble”, the “pH of 20 mg/ml solution” value ([1]; DMSO stock diluted in DMEM, pH test strips) is reported as 9 and the IC50 (SUM149-PTXR cells) is reported as 2100 ± 300 nM. The IC50 (T47D cells) was 3.6 ± 1.7 µM and the IC50 (MDA-MB-468 cells) was 300 ± 100 nM.

Source: patent US10081632B2, “Substituted tetrahydropyrido[3′,2′:4,5]pyrrolo[1,2-α]pyrazine-2-carboxamides as RSK inhibitors” (Phoenix Molecular Designs, priority 2016, dated 2018)
